Patent publication US20240254138A1, “TRICYCLIC PYRIMIDINES AS CYCLIN-DEPENDENT KINASE 7 (CDK7) INHIBITORS” (JANSSEN PHARMACEUTICA NV, priority 2021, published 2024)
Like-named read-outs stand apart in the source and are kept apart here.

What was measured:
[1] = biological target: CDK7/cyclinH/MAT1 trimeric complex (Homo sapiens, UniProt P50613); assay: In vitro CDK7 assay, potency of irreversible covalent inhibitors (kinact/KI), coupled PK/LDH ADP readout at 340 nm; details: for Ki: CDK7 (20 nM enz.) (KI, μM); for kinact: read-out: CDK7 (20 nM enz.) (kinact, s^−1), 20 nM enzyme
[2] = tested on: RNA Polymerase II Serine 5 phosphorylation in A549 cells overexpressing CDK7-mutant (C312S); assay: Imaging-based cellular RNA PolII Ser5 phosphorylation assay in A549 cells overexpressing CDK7-mutant (C312S); type: cell-based, human; details: RNA PolII Ser5 phosphorylation, averaged over all measurements; for IC50: Homo sapiens, A549, A549 cells overexpressing CDK7-mutant (C312S), read-out: CDK7_A549 mutant hCDK7(pIC50) (converted); for CDK7_A549 mutant hCDK7(pIC50): A549 cells overexpressing CDK7-mutant (C312S)
Summary of the method: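 Readout was automated imaging of anti-phospho-Ser5 Rpb1 CTD immunofluorescence, with IC50 fitted to % control versus concentration. Cells were A549 stably overexpressing non-covalently targetable CDK7 C312S alongside wild-type, exposed to compound 3 h at 37 °C. DMSO and 10 μM reference compound served as controls.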

[3] = tested on: RNA Polymerase II Serine 5 phosphorylation (Rpb1 CTD, downstream substrate of CDK7) in A549 cells; assay: Imaging-based cellular RNA PolII Ser5 phosphorylation assay in A549 cells; type: cell-based, human; details: wild-type CDK7, RNA PolII Ser5 phosphorylation, averaged over all measurements; for IC50: Homo sapiens, A549, A549 cells, read-out: CDK7_A549 Wild-type CDK7 (pIC50) (converted); for CDK7_A549 Wild-type CDK7 (pIC50): A549 cells
Summary of the method: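 IC50 derived by fitting % control (DMSO high, 10 μM reference low) against concentration, with Hill slope. Readout: high-content imaging of phospho-Ser5 Rpb1 CTD antibody staining in fixed, permeabilized A549 cells exposed to compound 3 h after 20 h culture in 1% FBS DMEM.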

[4] = read-out: CDK7 (20 nM enz.) (kinact/KI, M^−1*s^−1), 20 nM enzyme
[5] = read-out: CDK7 (20 nM enz.) (kobs/[I], M^−1*s^−1), 20 nM enzyme

Sequence of CDK7/cyclinH/MAT1 trimeric complex (P50613 whole entry): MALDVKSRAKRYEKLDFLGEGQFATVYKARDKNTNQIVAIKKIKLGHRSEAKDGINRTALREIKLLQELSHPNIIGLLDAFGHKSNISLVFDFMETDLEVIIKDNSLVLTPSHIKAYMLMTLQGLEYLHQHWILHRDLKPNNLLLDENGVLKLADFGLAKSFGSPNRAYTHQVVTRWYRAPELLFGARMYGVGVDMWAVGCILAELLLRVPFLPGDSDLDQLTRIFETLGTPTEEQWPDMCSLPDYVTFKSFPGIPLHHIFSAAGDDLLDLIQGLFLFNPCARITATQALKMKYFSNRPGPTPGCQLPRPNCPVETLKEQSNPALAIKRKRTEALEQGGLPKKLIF
Sequence of CDK7/cyclinH/MAT1 trimeric complex (P51946 whole entry partner): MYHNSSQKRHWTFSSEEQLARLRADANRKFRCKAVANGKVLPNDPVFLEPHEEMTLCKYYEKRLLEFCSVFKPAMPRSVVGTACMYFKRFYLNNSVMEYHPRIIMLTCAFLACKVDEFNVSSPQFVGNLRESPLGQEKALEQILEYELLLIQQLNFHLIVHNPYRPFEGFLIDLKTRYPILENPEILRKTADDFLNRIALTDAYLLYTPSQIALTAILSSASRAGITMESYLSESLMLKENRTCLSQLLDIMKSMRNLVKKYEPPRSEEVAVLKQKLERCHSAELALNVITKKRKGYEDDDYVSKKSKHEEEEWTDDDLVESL
Sequence of CDK7/cyclinH/MAT1 trimeric complex (P51948 whole entry partner): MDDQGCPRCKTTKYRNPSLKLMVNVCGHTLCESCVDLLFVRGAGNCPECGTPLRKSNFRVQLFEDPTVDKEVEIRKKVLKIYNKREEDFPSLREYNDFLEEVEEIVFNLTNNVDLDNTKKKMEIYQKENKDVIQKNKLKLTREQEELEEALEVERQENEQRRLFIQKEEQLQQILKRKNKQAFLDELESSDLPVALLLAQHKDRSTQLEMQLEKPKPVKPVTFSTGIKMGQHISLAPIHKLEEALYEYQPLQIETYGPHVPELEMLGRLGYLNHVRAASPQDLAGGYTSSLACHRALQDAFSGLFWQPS

SMILES | Ki ([1]; 20 nM enzyme) | kinact [1] | kinact/KI [1, 4] | IC50 [2] | IC50 [3] | CDK7 (20 nM enz.) (kinact, s^−1) ([1]; 20 nM enzyme) | CDK7 (20 nM enz.) (kinact/KI, M^−1*s^−1) ([1]; 20 nM enzyme) | CDK7_A549 mutant hCDK7(pIC50) [2] | CDK7_A549 Wild-type CDK7 (pIC50) [3] | kinact/KI ([1]; read-out: CDK7 (kinact/KI, M^−1*s^−1), potency of irreversible covalent inhibitors, 1 mM ATP, room temperature, averaged values over all measurements) | kinact/KI [1, 5]
C=CC(=O)N1CC(N2CCCN(C)[C@@H](c3cc(C)c4c(c3)Nc3nccc(C5CCOCC5)c3CO4)C2)C1 (single isomer, unassigned) [Compound 259] | 0.675 µM | 3.66e-05 s⁻¹ | 54.2 M⁻¹ s⁻¹ | > 10000 nM | > 10000 nM |  |  |  |  |  | 
C=CC(=O)N1CC(N2CCC(c3ccc4c(c3)Nc3nccc(-c5cnn(C)c5)c3C(C)(C)O4)CC2)C1 [Compound 260] | 0.0256 µM |  |  |  |  | 4.64e-05 s⁻¹ | 1810.44 M⁻¹ s⁻¹ | <5 | 7.1 |  | 
C=CC(=O)N1CC(N2CCC(c3cc4c(cc3F)OCc3c(N5CCOCC5)ccnc3N4)CC2)C1 [Compound 28] |  |  |  | > 10000 nM | 257 nM |  |  |  |  | 477 M⁻¹ s⁻¹ | 
C=CC(=O)N1CC[C@@H](N2CC(c3cc(C)c4c(c3)Nc3nccc(-c5cnn(C)c5)c3CO4)C2)[C@@H](F)C1 (mixture of isomers) [Compound 201] | 0.0701 µM | 3.6e-05 s⁻¹ | 514 M⁻¹ s⁻¹ | ~10000 nM | 89.1 nM |  |  |  |  |  | 
C=CC(=O)N1CC[C@H](N2CC(c3cc4c(c(C(F)(F)F)c3)OCc3c(N5CCOCC5)ccnc3N4)C2)C1 (single isomer, unassigned) [Compound 238] |  |  |  | 3310 nM | 40.7 nM |  |  |  |  |  | 758 M⁻¹ s⁻¹
C=CC(=O)N1CCN(C2CCN(c3cc4c(c(C)n3)OCc3c(N5CCOCC5)ccnc3N4)CC2)CC1 [Compound 391] | 0.0205 µM | 2.25e-05 s⁻¹ | 1100 M⁻¹ s⁻¹ | > 10000 nM | ~61.7 nM |  |  |  |  |  | 
C=CC(=O)N1CC(N2CCC(c3cc(F)c4c(c3)Nc3nccc(-c5cnn(C)c5)c3CO4)CC2)C1 [Compound 189] |  |  |  |  |  |  |  | <5 | 7.37 |  | 1440 M⁻¹ s⁻¹
C=CC(=O)N1CCC(N2CCC(c3cc(C)c4c(c3)Nc3nccc(N5CCOCC5)c3CO4)CC2)C1 (centres unmarked) [Compound 78] |  |  |  | 8130 nM | 26.9 nM |  |  |  |  |  | 908 M⁻¹ s⁻¹
C=CC(=O)N1CC(N2CCC(O)(c3cc(C)c4c(c3)Nc3nccc(C5CCOCC5)c3CO4)CC2)C1 [Compound 159] | 0.144 µM | 0.000115 s⁻¹ | 794 M⁻¹ s⁻¹ | > 10000 nM | 70.8 nM |  |  |  |  |  | 
C=CC(=O)N1CC(N2CCC(c3cc4c(c(C(=O)NC)c3)OCc3c(C5CCOCC5)ccnc3N4)CC2)C1 [Compound 135] | 0.0578 µM | 5.71e-05 s⁻¹ | 988 M⁻¹ s⁻¹ | ~7080 nM | 263 nM |  |  |  |  |  | 
C=CC(=O)N1CC[C@H](N2CC(c3cc(C)c4c(c3)Nc3nccc(N5CCOCC5)c3CO4)C2)C1 (single isomer, unassigned) [Compound 150] | 0.0526 µM | 8.76e-05 s⁻¹ | 1660 M⁻¹ s⁻¹ | 6030 nM | 46.8 nM |  |  |  |  |  | 
C=CC(=O)N1CC(N2CC[C@@H](c3ccc4c(c3)Nc3nccc(N5CCOCC5)c3CO4)[C@@H](C)C2)C1 (mixture of isomers) [Compound 70] |  |  |  | > 10000 nM | 145 nM |  |  |  |  |  | 634 M⁻¹ s⁻¹
C=CC(=O)N1CC[C@@H](N2CC(c3cc(C)c4c(c3)Nc3nccc(-c5cnn(C)c5)c3CO4)C2)[C@H](F)C1 (mixture of isomers) [Compound 203] | 0.0523 µM | 4.19e-05 s⁻¹ | 802 M⁻¹ s⁻¹ | > 10000 nM | 81.3 nM |  |  |  |  |  | 
C=CC(=O)N1CCC(N2CC(c3cc4c(c(C(F)(F)F)n3)OCc3c(N5CCOCC5)ccnc3N4)C2)CC1 [Compound 359] | 0.028 µM | 2.79e-05 s⁻¹ |  | 2820 nM | 102 nM |  | 994.882 M⁻¹ s⁻¹ |  |  |  | 
C=C(C(=O)N1CCC(N2CC(c3cc4c(c(C)n3)OCc3c(-c5cnn(C)c5)ccnc3N4)C2)CC1)n1cccn1 [Compound 349] | 0.0563 µM | 3.25e-05 s⁻¹ | 578 M⁻¹ s⁻¹ | 8320 nM | 97.7 nM |  |  |  |  |  | 
C=CC(=O)N1CC[C@H](N2CC(c3cc4c(c(C)n3)O[C@H](C)c3c(N5CCOCC5)ccnc3N4)C2)C1 (single isomer, unassigned) [Compound 455] |  |  | 179 M⁻¹ s⁻¹ | > 10000 nM | 91.2 nM |  |  |  |  |  | 
